{"source": "paper PMC7095870", "about": "(Nature Medicine, 2000)", "key": {"RSV F protein": {"system": "RSV F protein", "conditions": "ref [14], cited from earlier work"}, "[1]": {"system": "RSV F construct FN155 (F residues 155–550)", "conditions": "yeast two-hybrid assay; FN155 construct encoding F residues 155–550; ref [14]; cited from earlier work"}, "[2]": {"system": "RSV (A2 strain) in HEp-2 cells"}, "[3]": {"system": "RSV F (HEp-2 cells expressing RSV F, G and SH)", "assay_type": "cell-based, respiratory syncytial virus"}}, "note": "No end group written: not given here.", "data": [{"substance": "RhoA: RhoA, a small GTPase of the Ras superfamily", "values": [{"measurement": "binding to RSV F protein", "setting": "RSV F protein", "value": "binds"}, {"measurement": "binding to RSV F construct expressing the heptad repeat region", "setting": "[1]", "value": "not bind"}]}, {"substance": "TDVILMCFSIDSPDSLENI [RhoA77-95]", "values": [{"measurement": "IC50", "setting": "[2]; 1 h", "value": 250, "unit": "nM"}]}, {"substance": "DSPDSLENIPEKWTPEVKH [RhoA87-105]", "values": [{"measurement": "cell-to-cell fusion induced by RSV F", "setting": "[3]", "value": "not inhibited"}, {"measurement": "plaque formation", "setting": "[2]; pretreatment of virus inoculum, 1 h on ice, peptide 5 and 10 μg/ml, HEp-2 cells, 3 d, relative to media-treated controls", "value": "did not have any effect"}]}, {"substance": "RhoA amino acids 67–110: F binding domain of RhoA (amino acids 67–110)", "values": [{"measurement": "binding to RSV F amino acids 146–155", "setting": "RSV F protein; RhoA amino acids 67–110", "value": "bind"}]}, {"substance": "DRLRPLSYPDTDVILMCFS [RhoA67-85]", "values": [{"measurement": "RSV-induced syncytium formation", "setting": "[2]; peptide incubated 1 h on ice with RSV, 5 and 10 μg/ml, HEp-2 cells, 3 d", "value": "did not block"}]}]}
